Experimental data taken from PubChem BioAssay AID2060890 (Molecular Pharmacology Branch, DTP, NCI, 2025).
“And” between values parts separate entries of the source, which are not always exact repeats. Equal values may be shown once.

Tested on: LG0703-F948-PDC complex spheroid viability
Assay: Anticancer human tumor LG0703-F948-PDC patient-derived lung adenocarcinoma cell line growth inhibition [RAS]
Details: for viability, T/C: stronger effect = lower value
Method in brief: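 Multi-cell-type spheroids: tumor cells plus HUVEC endothelial cells and mesenchymal stem cells. RAS-pathway inhibitors were combined with targeted agents, each dosed in half-log steps down from clinical Cmax, or from 10 microM when Cmax was unknown.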

[1] = curve of first compound, second compound 0.0316 µM
[2] = curve of first compound, second compound 0.1 µM
[3] = curve of first compound, second compound 0.316 µM
[4] = curve of first compound, second compound 1 µM
[5] = second compound 0.0316 µM, first compound 0.00316 µM
[6] = second compound 0.0316 µM, first compound 0.01 µM
[7] = second compound 0.0316 µM, first compound 0.0316 µM
[8] = second compound 0.0316 µM, first compound 0.1 µM
[9] = second compound 0.0316 µM, first compound 0.316 µM
[10] = second compound 0.0316 µM, first compound 1 µM
[11] = second compound 0.1 µM, first compound 0.00316 µM
[12] = second compound 0.1 µM, first compound 0.01 µM
[13] = second compound 0.1 µM, first compound 0.0316 µM
[14] = second compound 0.1 µM, first compound 0.1 µM
[15] = second compound 0.1 µM, first compound 0.316 µM
[16] = second compound 0.1 µM, first compound 1 µM
[17] = second compound 0.316 µM, first compound 0.00316 µM
[18] = second compound 0.316 µM, first compound 0.01 µM
[19] = second compound 0.316 µM, first compound 0.0316 µM
[20] = second compound 0.316 µM, first compound 0.1 µM
[21] = second compound 0.316 µM, first compound 0.316 µM
[22] = second compound 0.316 µM, first compound 1 µM
[23] = second compound 1 µM, first compound 0.00316 µM
[24] = second compound 1 µM, first compound 0.01 µM
[25] = second compound 1 µM, first compound 0.0316 µM
[26] = second compound 1 µM, first compound 0.1 µM
[27] = second compound 1 µM, first compound 0.316 µM
[28] = second compound 1 µM, first compound 1 µM
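Note: spheroids exposed to agents for 7 days.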
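Throughout, for viability, T/C: 100% = DMSO vehicle wells.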

CC(=O)OC12COC1CC(O)C1(C)C(=O)C(O)C3=C(C)C(OC(=O)C(O)C(NC(=O)OC(C)(C)C)c4ccccc4)CC(O)(C(OC(=O)c4ccccc4)C21)C3(C)C (stereo not drawn) + CCn1c(-c2cccnc2C(C)OC)c2c3cc(ccc31)N1CCOC(CC(NC(=O)C(C(C)C)N(C)C(=O)C3(F)CCN(C(=O)C#CC(C)(C)N(C)C)CC3)C(=O)N3CCCC(N3)C(=O)OCC(C)(C)C2)C1
IC50 (curve of first compound, second compound 0.000949 µM): < 31.6 nM | IC50 (curve of first compound, second compound 0.003 µM): < 31.6 nM | IC50 (curve of first compound, second compound 0.00949 µM): < 31.6 nM | IC50 (curve of first compound, second compound 0.03 µM): < 31.6 nM | IC50 (curve of first compound, second compound 0.0949 µM): < 31.6 nM | IC50 (curve of first compound, second compound 0.3 µM): < 31.6 nM | viability, T/C (second compound 0.000949 µM, first compound 0.0316 µM): 40.1% | viability, T/C (second compound 0.000949 µM, first compound 0.1 µM): 36.8% | viability, T/C (second compound 0.000949 µM, first compound 0.316 µM): 36.3% | viability, T/C (second compound 0.000949 µM, first compound 1 µM): 39.4% | viability, T/C (second compound 0.000949 µM, first compound 3.16 µM): 44.2% | viability, T/C (second compound 0.000949 µM, first compound 10 µM): 41% | viability, T/C (second compound 0.003 µM, first compound 0.0316 µM): 37.7% | viability, T/C (second compound 0.003 µM, first compound 0.1 µM): 35.4% | viability, T/C (second compound 0.003 µM, first compound 0.316 µM): 41.1% | viability, T/C (second compound 0.003 µM, first compound 1 µM): 42.1% | viability, T/C (second compound 0.003 µM, first compound 3.16 µM): 38.7% | viability, T/C (second compound 0.003 µM, first compound 10 µM): 35.6% | viability, T/C (second compound 0.00949 µM, first compound 0.0316 µM): 36.5% | viability, T/C (second compound 0.00949 µM, first compound 0.1 µM): 36.7% | viability, T/C (second compound 0.00949 µM, first compound 0.316 µM): 36.6% | viability, T/C (second compound 0.00949 µM, first compound 1 µM): 40.9% | viability, T/C (second compound 0.00949 µM, first compound 3.16 µM): 49.5% | viability, T/C (second compound 0.00949 µM, first compound 10 µM): 46.9% | viability, T/C (second compound 0.03 µM, first compound 0.0316 µM): 33.5% | viability, T/C (second compound 0.03 µM, first compound 0.1 µM): 35.5% | viability, T/C (second compound 0.03 µM, first compound 0.316 µM): 36.5% | viability, T/C (second compound 0.03 µM, first compound 1 µM): 40.3% | viability, T/C (second compound 0.03 µM, first compound 3.16 µM): 42.5% | viability, T/C (second compound 0.03 µM, first compound 10 µM): 34% | viability, T/C (second compound 0.0949 µM, first compound 0.0316 µM): 39% | viability, T/C (second compound 0.0949 µM, first compound 0.1 µM): 32.7% | viability, T/C (second compound 0.0949 µM, first compound 0.316 µM): 33.4% | viability, T/C (second compound 0.0949 µM, first compound 1 µM): 34% | viability, T/C (second compound 0.0949 µM, first compound 3.16 µM): 35.6% | viability, T/C (second compound 0.0949 µM, first compound 10 µM): 37.1% | viability, T/C (second compound 0.3 µM, first compound 0.0316 µM): 28.5% | viability, T/C (second compound 0.3 µM, first compound 0.1 µM): 22.3% | viability, T/C (second compound 0.3 µM, first compound 0.316 µM): 22.4% | viability, T/C (second compound 0.3 µM, first compound 1 µM): 23.4% | viability, T/C (second compound 0.3 µM, first compound 3.16 µM): 23.7% | viability, T/C (second compound 0.3 µM, first compound 10 µM): 20.9%

CCN1CCN(Cc2ccc(Nc3ncc(F)c(-c4cc(F)c5nc(C)n(C(C)C)c5c4)n3)nc2)CC1
viability, T/C (compound 0.00316 µM): 110% and 103% (2×) and 94.4% | viability, T/C (compound 0.01 µM): 91.3% [middle of 4 runs] | viability, T/C (compound 0.0316 µM): 84.7% [middle of 4 runs] | viability, T/C (compound 0.1 µM): 85.1% [middle of 4 runs] | viability, T/C (compound 0.316 µM): 92.1% [middle of 4 runs] | viability, T/C (compound 1 µM): 83.4% [middle of 4 runs] | IC50 (curve of compound): > 1000 nM

O=C(c1ccc(F)c(F)c1Nc1ccc(I)cc1F)N1CC(O)([C@@H]2CCCCN2)C1 + C#Cc1c(F)ccc2cc(O)cc(-c3ncc4c(N5CC6CCC(C5)N6)nc(OCC56CCCN5CC(F)C6)nc4c3F)c12
IC50 [1]: 68.4 nM | IC50 [2]: 62.1 nM | IC50 [3]: 32.2 nM | IC50 [4]: 32.8 nM | IC50 (curve of first compound, second compound 3.16 µM): 7.71 nM | IC50 (curve of first compound, second compound 10 µM): < 3.16 nM | viability, T/C [5]: 103% | viability, T/C [6]: 75.2% | viability, T/C [7]: 60.5% | viability, T/C [8]: 45.4% | viability, T/C [9]: 35.6% | viability, T/C [10]: 24.1% | viability, T/C [11]: 91.8% | viability, T/C [12]: 70.2% | viability, T/C [13]: 64% | viability, T/C [14]: 39.4% | viability, T/C [15]: 34.2% | viability, T/C [16]: 21.9% | viability, T/C [17]: 80.5% | viability, T/C [18]: 66.1% | viability, T/C [19]: 53.1% | viability, T/C [20]: 31.6% | viability, T/C [21]: 28.2% | viability, T/C [22]: 22.3% | viability, T/C [23]: 66% | viability, T/C [24]: 54.8% | viability, T/C [25]: 51.5% | viability, T/C [26]: 24.4% | viability, T/C [27]: 25.1% | viability, T/C [28]: 19.7% | viability, T/C (second compound 3.16 µM, first compound 0.00316 µM): 56.8% | viability, T/C (second compound 3.16 µM, first compound 0.01 µM): 47.9% | viability, T/C (second compound 3.16 µM, first compound 0.0316 µM): 33.8% | viability, T/C (second compound 3.16 µM, first compound 0.1 µM): 21.4% | viability, T/C (second compound 3.16 µM, first compound 0.316 µM): 22.6% | viability, T/C (second compound 3.16 µM, first compound 1 µM): 16.3% | viability, T/C (second compound 10 µM, first compound 0.00316 µM): 43.9% | viability, T/C (second compound 10 µM, first compound 0.01 µM): 38.3% | viability, T/C (second compound 10 µM, first compound 0.0316 µM): 18.1% | viability, T/C (second compound 10 µM, first compound 0.1 µM): 17.3% | viability, T/C (second compound 10 µM, first compound 0.316 µM): 6.81% | viability, T/C (second compound 10 µM, first compound 1 µM): 2.29%

O=C(c1ccc(F)c(F)c1Nc1ccc(I)cc1F)N1CC(O)([C@@H]2CCCCN2)C1 + C=CC(=O)N1CCN(c2nc(OCC3CCCN3C)nc3c(F)c(-c4nc(N)cc(C)c4C(F)(F)F)c(Cl)cc23)C(C)C1
IC50 (curve of first compound, second compound 0.00316 µM): 27.1 nM | IC50 (curve of first compound, second compound 0.01 µM): 34 nM | IC50 [1]: 35.6 nM | IC50 [2]: 31.7 nM | IC50 [3]: 36.3 nM | IC50 [4]: 46 nM | viability, T/C (second compound 0.00316 µM, first compound 0.00316 µM): 92.1% | viability, T/C (second compound 0.00316 µM, first compound 0.01 µM): 69.6% | viability, T/C (second compound 0.00316 µM, first compound 0.0316 µM): 47.3% | viability, T/C (second compound 0.00316 µM, first compound 0.1 µM): 30.2% | viability, T/C (second compound 0.00316 µM, first compound 0.316 µM): 19.5% | viability, T/C (second compound 0.00316 µM, first compound 1 µM): 16.7% | viability, T/C (second compound 0.01 µM, first compound 0.00316 µM): 92.6% | viability, T/C (second compound 0.01 µM, first compound 0.01 µM): 79.5% | viability, T/C (second compound 0.01 µM, first compound 0.0316 µM): 51.3% | viability, T/C (second compound 0.01 µM, first compound 0.1 µM): 26.8% | viability, T/C (second compound 0.01 µM, first compound 0.316 µM): 16.8% | viability, T/C (second compound 0.01 µM, first compound 1 µM): 13.2% | viability, T/C [5]: 94.2% | viability, T/C [6]: 81.2% | viability, T/C [7]: 52.3% | viability, T/C [8]: 27.7% | viability, T/C [9]: 17.6% | viability, T/C [10]: 14.2% | viability, T/C [11]: 89.7% | viability, T/C [12]: 74.1% | viability, T/C [13]: 50.6% | viability, T/C [14]: 27.9% | viability, T/C [15]: 18.9% | viability, T/C [16]: 13.8% | viability, T/C [17]: 90.8% | viability, T/C [18]: 82.5% | viability, T/C [19]: 52.8% | viability, T/C [20]: 27% | viability, T/C [21]: 19.7% | viability, T/C [22]: 17.5% | viability, T/C [23]: 99.8% | viability, T/C [24]: 92.7% | viability, T/C [25]: 58.4% | viability, T/C [26]: 30.9% | viability, T/C [27]: 23.6% | viability, T/C [28]: 18%
